# According to US11186551B2, “Composition of scalable thyrointegrin antagonists with improved retention in tumors” (NanoPharmaceuticals, LLC, priority 2020, dated 2021):
# “Also recorded” adds a separate entry of the source.
# Experiments:
# U87-luc xenografts = test: GBM xenograft efficacy: tumor weight and luminescent signal intensity; type: in vivo, Nude mice; conditions: for Tumor weight after 3 weeks of treatment: control approximately 600 mg; for Luminescent signal intensity after 3 weeks of treatment: control approximately 600,000p/s
# Protocol: The efficacy of these compounds/compositions with respect to GBM tumors will now be described with reference to FIGS. 30-33. The study protocol is as follows: Nude mice having U87-luc xenografts were treated with varying dosages of Compound 2 (fb-PMT) for 3 weeks. Efficacy was determined by tumor weight and luminescent signal intensity compared with a control group. Further, treatment efficacy was also evaluated in comparison with known potential treatment Cilengitide. Efficacy was also determined again after an additional 3 week period with no additional treatment.
# [1] = test system: angiogenesis induced by bFGF, VEGF, HGF; test: Anti-angiogenic effect in CAM Models in the presence of growth factors; type: in vivo
# Excerpt: In addition to good initial uptake, the disclosed compounds also have good anti-angiogenic effect. […] Specifically, Compound 2 is effective at reducing the percentage of angiogenesis present in CAM Models, when administered in the presence of the following growth factors: bFGF, VEGF, VEGF+bFGF, and bFGF+VEGF+HGF.
# This broad spectrum anti-angiogenic effect is in contrast to existing therapeutic compounds/compositions such as AVASTIN® (bevacizumab).
# [2] = mouse, in vivo, sc, 10 mg/kg
# Protocol: Concentrations are shown as recorded 3 h following administration.
# Each group contained 4 mice.
# [3] = mouse, in vivo, sc, 10 mg/kg; remark: listed apart in the source
# Protocol: Again, a single subcutaneous injection was used in mice. The administered dose was 10 mg/Kg.
# [4] = cynomolgus monkey, in vivo, sc, 15 mg/kg
# [5] = Compound 2 6 mg/kg, Cilengitide 75 mg/kg
# [6] = Compound 2 6 mg/kg, Cilengitide 75 mg/kg, control approximately 750 mg
# [7] = Compound 2 6 mg/kg, Cilengitide 75 mg/kg, control over 800,000p/s
Molecule,Tumor weight after 3 weeks of treatment (U87-luc xenografts; [5]),Tumor weight after 3 weeks of treatment followed by 3 weeks without treatment (U87-luc xenografts; [6]),Luminescent signal intensity after 3 weeks of treatment (U87-luc xenografts; [5]),Luminescent signal intensity after 3 weeks of treatment followed by 3 weeks without treatment (U87-luc xenografts; [7]),"Average Brain Concentration (ng/g), 3 hour [2] [ng/g]",further results
"CC(C)[C@H]1C(=O)N[C@@H](CCCN=C(N)N)C(=O)NCC(=O)N[C@@H](CC(=O)O)C(=O)N[C@H](Cc2ccccc2)C(=O)N1C [Cilengitide, reference compound]",approximately 300 mg,over 400 mg,"approximately 300,000 p/s","over 500,000 p/s",,
bevacizumab [AVASTIN®],,,,,,"Anti-angiogenic effect in CAM Model against VEGF alone ([1]; VEGF alone): primarily effective against VEGF alone; Percent of angiogenesis in CAM Model for bFGF or HGF ([1]; bFGF or HGF): does not meaningfully reduce; Anti-angiogenic effect in CAM Model, VEGF combined with other growth factors ([1]; bFGF or bFGF and HGF present along with VEGF): does not demonstrate good effect"
di-tbutylbenzyl conjugated to triazole tetrac by polyethylene glycol [Compound 4],,,,,922,
fluorobenzyl conjugated to triazole tetrac by polyethylene glycol [Compound 2],under 50 mg,further reduction,negligible levels,even further reduction,228,"Brain tissue uptake and retention over time [3]: uptake and retention over a 24 hour period; Time of plasma concentration peak [4]: 1 to 4 h; Percentage of angiogenesis in CAM Model ([1]; 1.0 μg, growth factors bFGF, VEGF, VEGF+bFGF, bFGF+VEGF+HGF): only slightly above baseline; also recorded: inhibition of angiogenesis against all three growth factors, both alone and in combination; Tumor weight after 3 weeks of treatment (U87-luc xenografts; all doses 1, 3, 6 and 10 mg/kg): under 100 mg; Tumor weight after 3 weeks of treatment followed by 3 weeks off treatment (U87-luc xenografts; all doses 1, 3, 6 and 10 mg/kg, control approximately 750 mg): further and additional reduction; Luminescent signal intensity after 3 weeks of treatment (U87-luc xenografts; all doses 1, 3, 6 and 10 mg/kg): under 100,000 p/s; Luminescent signal intensity after 3 weeks of treatment followed by 3 weeks off treatment (U87-luc xenografts; all doses 1, 3, 6 and 10 mg/kg, control over 800,000p/s): further and additional reduction"
